For orientation: MIC means the lowest concentration that inhibits growth of the organism. Read a high MIC as weaker potency. What is called inhibition is the drop in the measured response relative to a control, in per cent.

These results are taken from ChEMBL document CHEMBL3779884, “Anti-Staphylococcal Biofilm Effects of Human Cathelicidin Peptides” (ACS Med Chem Lett, 2016).

Converted amounts (≈) assume the structure as drawn. The source made the active and inactive calls. No cut-off for these calls is given here. Where a SMILES comes first, the peptide text is derived from it. Bounds are passed on as bounds.

Test [1] has as its system Staphylococcus aureus. Kind of test: Antibacterial activity against Staphylococcus aureus clinical isolate USA400 incubated for 20 hrs by microplate reader analysis. In kind it is functional. To be noted: isolate USA400, 20 h.
Test [2] concerns Staphylococcus aureus. Kind of test: Inhibition of biofilm formation in Staphylococcus aureus clinical isolate USA300 at 3.1 to 25 uM incubated for 24 hrs by XTT/PMS assay. In kind it is functional, organism-based. A general note: Formazan colour is commonly taken as a measure of viable cells.
The test system of test [3] is Staphylococcus aureus. Kind of test: Antibacterial activity against Staphylococcus aureus Mu50 incubated for 20 hrs by microplate reader analysis. In kind it is functional. Conditions: Mu50, 20 h.
Test [4] has as its system Staphylococcus aureus. Kind of test: Antibiofilm activity against Staphylococcus aureus clinical isolate USA200 assessed as 24 hr preformed biofilm disruption at 3.1 to 25 uM incubated for 24 hrs by XTT assay. In kind it is functional, organism-based.
The test system of test [5] is Staphylococcus aureus. Kind of test: Antibacterial activity against Staphylococcus aureus clinical isolate USA200 incubated for 20 hrs by microplate reader analysis. In kind it is functional. To be noted: isolate USA200, 20 h.
The test system of test [6] is Staphylococcus aureus. Kind of test: Antibacterial activity against Staphylococcus aureus clinical isolate UAMS-1 incubated for 20 hrs by microplate reader analysis. In kind it is functional. To be noted: isolate UAMS-1, 20 h.
Test [7] relates to Staphylococcus aureus. Kind of test: Antibacterial activity against Staphylococcus aureus Newman incubated for 20 hrs by microplate reader analysis. In kind it is functional.
Test [8] concerns Staphylococcus aureus. Kind of test: Antibiofilm activity against Staphylococcus aureus clinical isolate USA400 assessed as 24 hr preformed biofilm disruption at 3.1 to 25 uM incubated for 24 hrs by XTT assay. In kind it is functional, organism-based.
In test [9] the test system is Staphylococcus aureus. Kind of test: Antibiofilm activity against Staphylococcus aureus Mu50 assessed as 24 hr preformed biofilm disruption at 3.1 to 25 uM incubated for 24 hrs by XTT assay. In kind it is functional, organism-based.
Test [10] deals with Staphylococcus aureus. Kind of test: Antibiofilm activity against Staphylococcus aureus Newman assessed as 24 hr preformed biofilm disruption at 3.1 to 25 uM incubated for 24 hrs by XTT assay. In kind it is functional, organism-based.
In test [11] the test system is Staphylococcus aureus. Kind of test: Antibiofilm activity against Staphylococcus aureus clinical isolate UAMS-1 assessed as 24 hr preformed biofilm disruption at 3.1 to 25 uM incubated for 24 hrs by XTT assay. In kind it is functional, organism-based.
Test [12] concerns Staphylococcus aureus. Kind of test: Antibiofilm activity against Staphylococcus aureus clinical isolate USA300 assessed as 24 hr preformed biofilm disruption at 3.1 to 25 uM incubated for 24 hrs by XTT assay. In kind it is functional, organism-based.
Test [13] has as its system Staphylococcus aureus. Kind of test: Antibacterial activity against Staphylococcus aureus clinical isolate USA300 incubated for 20 hrs by microplate reader analysis. In kind it is functional. Conditions: isolate USA300, 20 h.
Test [14] concerns Staphylococcus aureus. Kind of test: Antibiofilm activity against Staphylococcus aureus clinical isolate USA300 assessed as inhibition of bacterial attachment at 25 uM incubated for 1 hr by XTT/PMS assay. In kind it is functional, organism-based.
Test [15] has as its system Staphylococcus aureus. Kind of test: Inhibition of biofilm formation in Staphylococcus aureus clinical isolate USA300 at 3.1 uM incubated for 24 hrs by XTT/PMS assay relative to control. In kind it is functional. To be noted: isolate USA300, 24 h.
For test [16], the system named is Staphylococcus aureus. Kind of test: Inhibition of biofilm formation in Staphylococcus aureus clinical isolate USA300 at 6.2 to 25 uM incubated for 24 hrs by XTT/PMS assay. In kind it is functional, organism-based.
Test [17] deals with Staphylococcus aureus. Kind of test: Antibiofilm activity against Staphylococcus aureus clinical isolate USA300 assessed as inhibition of bacterial attachment at 3.1 to 25 uM incubated for 1 hr by XTT/PMS assay. In kind it is functional, organism-based.

Regarding `CC[C@H](C)[C@H](NC(=O)[C@H](CCCNC(=N)N)NC(=O)[C@H](CCC(N)=O)NC(=O)[C@@H](NC(=O)[C@@H](NC(=O)[C@@H](N)CCCNC(=N)N)[C@@H](C)CC)C(C)C)C(=O)N[C@@H](CCCCN)C(=O)N[C@@H](CC(=O)O)C(=O)N[C@@H](Cc1ccccc1)C(=O)N[C@@H](CC(C)C)C(=O)O` (H-RIVQRIKDFL-OH), the MIC in [1], in [3], in [5], in test [6], in test [7] and in test [13] was > 50 µM throughout. In test [2], the inhibition entry is “inactive”. Moreover, the result in test [4], in [8], in test [9], in test [10], in test [11] and in [12] was inactive. Further, the inhibition result in test [14] was “Active”.
In the case of `CC[C@H](C)[C@H](NC(=O)[C@H](CCCCN)NC(=O)[C@H](CCC(=O)O)NC(=O)[C@H](CCCCN)NC(=O)[C@H](CO)NC(=O)[C@H](CCCCN)NC(=O)[C@H](CCCNC(=N)N)NC(=O)[C@H](Cc1ccccc1)NC(=O)[C@H](Cc1ccccc1)NC(=O)[C@H](CC(=O)O)NC(=O)CNC(=O)[C@H](CC(C)C)NC(=O)[C@@H](N)CC(C)C)C(=O)NCC(=O)N[C@@H](CCCCN)C(=O)N[C@@H](CCC(=O)O)C(=O)N[C@@H](Cc1ccccc1)C(=O)N[C@@H](CCCCN)C(=O)N[C@@H](CCCNC(=N)N)C(=O)N[C@H](C(=O)N[C@H](C(=O)N[C@@H](CCC(N)=O)C(=O)N[C@@H](CCCNC(=N)N)C(=O)N[C@H](C(=O)N[C@@H](CCCCN)C(=O)N[C@@H](CC(=O)O)C(=O)N[C@@H](Cc1ccccc1)C(=O)N[C@@H](CC(C)C)C(=O)N[C@@H](CCCNC(=N)N)C(=O)N[C@@H](CC(N)=O)C(=O)N[C@@H](CC(C)C)C(=O)N[C@H](C(=O)N1CCC[C@H]1C(=O)N[C@@H](CCCNC(=N)N)C(=O)N[C@H](C(=O)N[C@@H](CCC(=O)O)C(=O)N[C@@H](CO)C(=O)O)[C@@H](C)O)C(C)C)[C@@H](C)CC)C(C)C)[C@@H](C)CC` [CATHELICIDIN], the minimal inhibitory concentration (MIC) is 6.25 µM (≈ 28.1 µg/mL) in [1]; > 50 µM in [3]; > 50 µM in [5]; > 50 µM in test [6]; > 50 µM in test [7]; 12.5 µM (≈ 56.2 µg/mL) in test [13]. Further, the outcome in test [4], in test [8], in [9], in test [10], in test [11] and in [12] was inactive. This compound had an inhibition at 3.1 µM in test [15] of 50%. The inhibition entry in test [16] and in [17] was “inactive” in each case.
